Experimental data: PMC9434621 (ACS Omega, 2022)

Experiments:
bovine erythrocyte CA [1] = molecular target: T1, bovine erythrocyte CA (Bos taurus, UniProt P00921); details: test concentration not given; Figure 2
bovine erythrocyte CA [2] = molecular target: T1, bovine erythrocyte CA; details: sample 0.5 mM in DMSO, 15 min incubation with enzyme at room temperature
bovine erythrocyte CA [3] = molecular target: T1, bovine erythrocyte CA; test: biochemical

T1 sequence (P00921 whole entry): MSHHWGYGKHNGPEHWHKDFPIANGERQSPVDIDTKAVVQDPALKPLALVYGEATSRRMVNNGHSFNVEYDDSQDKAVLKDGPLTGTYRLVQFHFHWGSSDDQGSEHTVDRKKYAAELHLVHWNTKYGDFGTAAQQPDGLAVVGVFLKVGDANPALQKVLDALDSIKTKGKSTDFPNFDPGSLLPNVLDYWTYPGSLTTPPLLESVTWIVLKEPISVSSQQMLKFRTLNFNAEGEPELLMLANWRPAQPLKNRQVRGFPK

% inhibition (bovine erythrocyte CA [1]) [%]	enhancement of fluorescence signal after complex formation with CA (bovine erythrocyte CA [2])	IC50 (bovine erythrocyte CA [3]) [µM]	Compound
58.4	–	–	CCCC1=NOC(=O)/C1=C/c1ccc(OC)cc1O [AC1, (E)-4-(2-Hydroxy-4-methoxybenzylidene)-3-propylisoxazol-5(4H)-one]
79.5	significant fluorescence enhancement	112 ± 1.6	CCCC1=NOC(=O)/C1=C/c1cccs1 [AC2, (E)-3-Propyl-4-(thiophen-2-ylmethylene) Isoxazol-5(4H)-one]
50.5	–	–	CCCC1=NOC(=O)/C1=C/c1ccc(O)cc1 [AC4, (E)-4-(4-Hydroxybenzylidene)-3-propylisoxazol-5(4H)-one]
68.7	significant fluorescence enhancement	–	(E)-4-(2-Methoxybenzylidene)-3-propylisoxazol-5(4H)-one [AC3]
